The IC50 is the point on the concentration scale where inhibition reaches its midpoint.

This passage reports IC50 results from US20230081426A1, “COMPOUNDS AND METHODS FOR KRAS MODULATION AND INDICATIONS THEREFOR” (Plexxikon Inc., priority 2020, published 2023).

Experiment [1] concerns the target T1, G12D-mutant human KRAS (amino acid residues 1-188) (Homo sapiens, UniProt P01116, G12D).
T1 construct: G12D or G12C-mutant human KRAS (amino acid residues 1-188) with FLAG tag; made in house; host or cells: E. coli
The experiment in a line: KRAS Binding Disruption Assay (AlphaScreen; biotinylated KRpep-2d analogue or RAF1-RBD), G12D. Particulars: KRAS G12D; geometric mean; read-out: KRAS GMean IC50 (uM) MUTATION: G12D. In outline: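 AlphaScreen readout: signal falls as compound displaces biotinylated KRpep-2d analogue or RAF1-RBD from mutant KRAS. Both partners at 5-20 nM, 1 h binding at 25° C, then 10 μg/mL Anti-Flag acceptor and streptavidin donor beads for 1 h. IC50 by nonlinear regression of % inhibition.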
A general note: Alpha assays give light when donor and acceptor beads are brought close together.

The target in experiment [2] is T2, G12V-mutant human KRAS (amino acid residues 1-188) (Homo sapiens, UniProt P01116, G12V).
T2 construct: G12V-mutant human KRAS (amino acid residues 1-188) with FLAG tag was purified from E. coli; made in house; host or cells: E. coli
The experiment in a line: KRAS Binding Competition Assay (AlphaScreen; biotinylated KRpep-2d analogue), G12V. Particulars: geometric mean, read-out: KRAS GMean IC50 (uM) MUTATION: G12V.

With `CN1CCC[C@H]1COc1nc(N2[C@@H]3CC[C@H]2CN(C(=O)NCC(N)=O)C3)c2ccc(-c3cc(O)cc4ccccc34)cc2n1` [P-0211, (1R,5S)-N-(2-amino-2-oxoethyl)-8-(7-(3-hydroxynaphthalen-1-yl)-2-(((S)-1-methylpyrrolidin-2-yl)methoxy)quinazolin-4-yl)-3,8-diazabicyclo[3.2.1]octane-3-carboxamide], the IC50 in experiment [1] and in experiment [2] was 10 to 100 µM each time.
As to `CN1CCC[C@H]1COc1nc(N2[C@@H]3CC[C@H]2CN(C(=O)NC2COCC2(C)C)C3)c2ccc(-c3cc(O)cc4ccccc34)cc2n1` (stereo partly drawn) [P-0212, (1R,5S)-N-(4,4-dimethyltetrahydrofuran-3-yl)-8-(7-(3-hydroxynaphthalen-1-yl)-2-(((S)-1-methylpyrrolidin-2-yl)methoxy)quinazolin-4-yl)-3,8-diazabicyclo[3.2.1]octane-3-carboxamide], the half-maximal inhibitory concentration (IC50) in experiment [1] and in experiment [2] was 10 to 100 µM throughout.
In the case of `CN1CCC[C@H]1COc1nc(N2[C@@H]3CC[C@H]2CN(C(=O)NO)C3)c2ccc(-c3cc(O)cc4ccccc34)cc2n1` [P-0213, (1R,5S)-N-hydroxy-8-(7-(3-hydroxynaphthalen-1-yl)-2-(((S)-1-methylpyrrolidin-2-yl)methoxy)quinazolin-4-yl)-3,8-diazabicyclo[3.2.1]octane-3-carboxamide], the 50% inhibitory concentration (IC50) in experiment [1] and in experiment [2] was 10 to 100 µM in each case.
Consider `CONC(=O)N1C[C@H]2CC[C@@H](C1)N2c1nc(OC[C@@H]2CCCN2C)nc2cc(-c3cc(O)cc4ccccc34)ccc12` [P-0214, (1R,5S)-8-(7-(3-hydroxynaphthalen-1-yl)-2-(((S)-1-methylpyrrolidin-2-yl)methoxy)quinazolin-4-yl)-N-methoxy-3,8-diazabicyclo[3.2.1]octane-3-carboxamide], for which the IC50 in experiment [1] and in experiment [2] was 10 to 100 µM each time.
For `CCN1CCC(NC(=O)N2C[C@H]3CC[C@@H](C2)N3c2nc(OC[C@@H]3CCCN3C)nc3cc(-c4cc(O)cc5ccccc45)ccc23)C1` (stereo partly drawn) [P-0215, (1R,5S)-N-(1-ethylpyrrolidin-3-yl)-8-(7-(3-hydroxynaphthalen-1-yl)-2-(((S)-1-methylpyrrolidin-2-yl)methoxy)quinazolin-4-yl)-3,8-diazabicyclo[3.2.1]octane-3-carboxamide], the IC50 in experiment [1] lay in the range of 10 to 100 µM; in experiment [2], 100 to 1000 µM.
`CN1CCC[C@H]1COc1nc(N2[C@@H]3CC[C@H]2CN(C(=O)NCc2ccccn2)C3)c2ccc(-c3cc(O)cc4ccccc34)cc2n1` [P-0216, (1R,5S)-8-(7-(3-hydroxynaphthalen-1-yl)-2-(((S)-1-methylpyrrolidin-2-yl)methoxy)quinazolin-4-yl)-N-(pyridin-2-ylmethyl)-3,8-diazabicyclo[3.2.1]octane-3-carboxamide]: the IC50 in experiment [1] and in experiment [2] was 10 to 100 µM in each case.
For `CN1CCC[C@H]1COc1nc(N2[C@@H]3CC[C@H]2CN(C(=O)C(N)=O)C3)c2ccc(-c3cc(O)cc4ccccc34)cc2n1` [P-0217, 2-((1R,5S)-8-(7-(3-hydroxynaphthalen-1-yl)-2-(((S)-1-methylpyrrolidin-2-yl)methoxy)quinazolin-4-yl)-3,8-diazabicyclo[3.2.1]octan-3-yl)-2-oxoacetamide], the IC50 in experiment [1] and in experiment [2] was 10 to 100 µM throughout.
As for `CN1CCC[C@H]1COc1nc(N2[C@@H]3CC[C@H]2CN(C(=O)CCC(N)=O)C3)c2ccc(-c3cc(O)cc4ccccc34)cc2n1` [P-0218, 4-((1R,5S)-8-(7-(3-hydroxynaphthalen-1-yl)-2-(((S)-1-methylpyrrolidin-2-yl)methoxy)quinazolin-4-yl)-3,8-diazabicyclo[3.2.1]octan-3-yl)-4-oxobutanamide], the 50% inhibitory concentration (IC50) in experiment [1] and in experiment [2] was 10 to 100 µM each time.
`CN1CCC[C@H]1COc1nc(N2[C@@H]3CC[C@H]2CN(C(=O)C(O)CO)C3)c2ccc(-c3cc(O)cc4ccccc34)cc2n1` (stereo partly drawn) [P-0219, 2,3-dihydroxy-1-((1R,5S)-8-(7-(3-hydroxynaphthalen-1-yl)-2-(((S)-1-methylpyrrolidin-2-yl)methoxy)quinazolin-4-yl)-3,8-diazabicyclo[3.2.1]octan-3-yl)propan-1-one]: the IC50 in experiment [1] and in experiment [2] was 10 to 100 µM in each case.
In the case of `C[C@@H](O)C(=O)N1C[C@H]2CC[C@@H](C1)N2c1nc(OC[C@@H]2CCCN2C)nc2cc(-c3cc(O)cc4ccccc34)ccc12` [P-0220, (R)-2-hydroxy-1-((1R,5S)-8-(7-(3-hydroxynaphthalen-1-yl)-2-(((S)-1-methylpyrrolidin-2-yl)methoxy)quinazolin-4-yl)-3,8-diazabicyclo[3.2.1]octan-3-yl)propan-1-one], the IC50 is 10 to 100 µM in experiment [1] and 100 to 1000 µM in experiment [2].
For `C[C@H](O)C(=O)N1C[C@H]2CC[C@@H](C1)N2c1nc(OC[C@@H]2CCCN2C)nc2cc(-c3cc(O)cc4ccccc34)ccc12` [P-0221, (S)-2-hydroxy-1-((1R,5S)-8-(7-(3-hydroxynaphthalen-1-yl)-2-(((S)-1-methylpyrrolidin-2-yl)methoxy)quinazolin-4-yl)-3,8-diazabicyclo[3.2.1]octan-3-yl)propan-1-one] the same measures were 10 to 100 µM and 10 to 100 µM.
Consider `CN1CCC[C@H]1COc1nc(N2[C@@H]3CC[C@H]2CN(C(=O)C2CCC(=O)N2)C3)c2ccc(-c3cc(O)cc4ccccc34)cc2n1` (stereo partly drawn) [P-0222, 5-((1R,5S)-8-(7-(3-hydroxynaphthalen-1-yl)-2-(((S)-1-methylpyrrolidin-2-yl)methoxy)quinazolin-4-yl)-3,8-diazabicyclo[3.2.1]octane-3-carbonyl)pyrrolidin-2-one], for which the IC50 in experiment [1] lay within 10 to 100 µM; in experiment [2] it was 100 to 1000 µM.
Consider `CN1CCC[C@H]1COc1nc(N2[C@@H]3CC[C@H]2CN(C(=O)[C@@H](N)CO)C3)c2ccc(-c3cc(O)cc4ccccc34)cc2n1` [P-0223, (S)-2-amino-3-hydroxy-1-((1R,5S)-8-(7-(3-hydroxynaphthalen-1-yl)-2-(((S)-1-methylpyrrolidin-2-yl)methoxy)quinazolin-4-yl)-3,8-diazabicyclo[3.2.1]octan-3-yl)propan-1-one], for which the IC50 in experiment [1] and in experiment [2] was 10 to 100 µM in each case.
Take `CN1CCC[C@H]1COc1nc(N2[C@@H]3CC[C@H]2CN(C(=O)c2ncc[nH]2)C3)c2ccc(-c3cc(O)cc4ccccc34)cc2n1` [P-0224, ((1R,5S)-8-(7-(3-hydroxynaphthalen-1-yl)-2-(((S)-1-methylpyrrolidin-2-yl)methoxy)quinazolin-4-yl)-3,8-diazabicyclo[3.2.1]octan-3-yl)(1H-imidazol-2-yl)methanone]: the IC50 in experiment [1] is 10 to 100 µM; in experiment [2] it was 0.0001 to 10 µM.
For `CN1CCC[C@H]1COc1nc(N2[C@@H]3CC[C@H]2CN(CC(=O)Nc2ccccn2)C3)c2ccc(-c3cc(O)cc4ccccc34)cc2n1` [P-0225, 2-((1R,5S)-8-(7-(3-hydroxynaphthalen-1-yl)-2-(((S)-1-methylpyrrolidin-2-yl)methoxy)quinazolin-4-yl)-3,8-diazabicyclo[3.2.1]octan-3-yl)-N-(pyridin-2-yl)acetamide] the same measures were 10 to 100 µM and 10 to 100 µM.
For `CN1CCC[C@H]1COc1nc(N2[C@@H]3CC[C@H]2CN(C2CNC2)C3)c2ccc(-c3cc(O)cc4ccccc34)cc2n1` [P-0226, 4-(4-((1R,5S)-3-(azetidin-3-yl)-3,8-diazabicyclo[3.2.1]octan-8-yl)-2-(((S)-1-methylpyrrolidin-2-yl)methoxy)quinazolin-7-yl)naphthalen-2-ol] the same measures were 100 to 1000 µM and 100 to 1000 µM.
For `CN1CCC[C@H]1COc1nc(N2[C@@H]3CC[C@H]2CN(C(=O)CC(N)=O)C3)c2ccc(-c3cc(O)cc4ccccc34)cc2n1` [P-0227, 3-((1R,5S)-8-(7-(3-hydroxynaphthalen-1-yl)-2-(((S)-1-methylpyrrolidin-2-yl)methoxy)quinazolin-4-yl)-3,8-diazabicyclo[3.2.1]octan-3-yl)-3-oxopropanamide] the same measures were 10 to 100 µM and 100 to 1000 µM.
`CN1CCC[C@H]1COc1nc(N2[C@@H]3CC[C@H]2CN(C(=O)Cc2cnn(C)c2)C3)c2ccc(-c3cc(O)cc4ccccc34)cc2n1` [P-0228, 1-((1R,5S)-8-(7-(3-hydroxynaphthalen-1-yl)-2-(((S)-1-methylpyrrolidin-2-yl)methoxy)quinazolin-4-yl)-3,8-diazabicyclo[3.2.1]octan-3-yl)-2-(1-methyl-1H-pyrazol-4-yl)ethan-1-one]: the values for the IC50 in experiment [1] and in experiment [2] were 10 to 100 µM and 100 to 1000 µM, respectively.
For `CN1CCC[C@H]1COc1nc(N2[C@@H]3CC[C@H]2CN(C(=O)C(=O)Nc2ccccn2)C3)c2ccc(-c3cc(O)cc4ccccc34)cc2n1` [P-0229, 2-((1R,5S)-8-(7-(3-hydroxynaphthalen-1-yl)-2-(((S)-1-methylpyrrolidin-2-yl)methoxy)quinazolin-4-yl)-3,8-diazabicyclo[3.2.1]octan-3-yl)-2-oxo-N-(pyridin-2-yl)acetamide], the IC50 in experiment [1] and in experiment [2] was 10 to 100 µM each time.
Consider `CN1CCC[C@H]1COc1nc(N2[C@@H]3CC[C@H]2CN(C(=O)c2ncn[nH]2)C3)c2ccc(-c3cc(O)cc4ccccc34)cc2n1` [P-0230, ((1R,5S)-8-(7-(3-hydroxynaphthalen-1-yl)-2-(((S)-1-methylpyrrolidin-2-yl)methoxy)quinazolin-4-yl)-3,8-diazabicyclo[3.2.1]octan-3-yl)(1H-1,2,4-triazol-5-yl)methanone], for which the IC50 in experiment [1] and in experiment [2] was 10 to 100 µM throughout.
